Test results from patent US20150225369A1, “DDR2 INHIBITORS FOR THE TREATMENT OF OSTEOARTHRITIS” (Merck Patent GmbH, priority 2012, published 2015).
Like-named read-outs stand apart in the source and are kept apart here.

Key:
[1] = target: T1, HEK293 transfected with human DDR2 (Homo sapiens, UniProt Q16832); test: Phospho-DDR2 cellular assay (collagen II induced DDR2 phosphorylation, ELISA); format: cell-based; conditions: read-out: IC50 [p-DDR2]
T1 construct: expressed in transfected cells; host or cells: HEK293 (PLT460F_(DDR2)-P7-1)
T1 sequence (Q16832 22-855): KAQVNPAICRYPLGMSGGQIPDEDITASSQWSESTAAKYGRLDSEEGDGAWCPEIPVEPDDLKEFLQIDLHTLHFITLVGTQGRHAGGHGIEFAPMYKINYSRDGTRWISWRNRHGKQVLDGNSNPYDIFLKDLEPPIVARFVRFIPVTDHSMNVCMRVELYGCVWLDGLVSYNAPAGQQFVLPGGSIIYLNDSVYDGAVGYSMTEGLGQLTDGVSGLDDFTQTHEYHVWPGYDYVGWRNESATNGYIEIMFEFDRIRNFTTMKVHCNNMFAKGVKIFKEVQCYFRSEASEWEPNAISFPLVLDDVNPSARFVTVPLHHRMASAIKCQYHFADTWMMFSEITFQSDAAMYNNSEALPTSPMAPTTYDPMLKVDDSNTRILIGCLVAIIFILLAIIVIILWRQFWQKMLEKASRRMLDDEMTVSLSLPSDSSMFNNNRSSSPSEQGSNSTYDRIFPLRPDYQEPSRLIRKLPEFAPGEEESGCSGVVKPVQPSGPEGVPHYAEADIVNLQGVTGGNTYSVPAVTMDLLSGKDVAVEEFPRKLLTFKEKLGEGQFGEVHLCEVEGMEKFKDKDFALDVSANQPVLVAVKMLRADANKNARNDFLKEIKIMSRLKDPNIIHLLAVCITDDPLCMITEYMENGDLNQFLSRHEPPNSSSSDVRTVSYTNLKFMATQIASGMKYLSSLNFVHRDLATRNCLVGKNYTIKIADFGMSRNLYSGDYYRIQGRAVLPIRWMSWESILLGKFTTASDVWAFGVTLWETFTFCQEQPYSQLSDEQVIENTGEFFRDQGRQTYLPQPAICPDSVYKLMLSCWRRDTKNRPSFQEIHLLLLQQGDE
How it was run: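 Cells seeded 48 h in 10% FBS, serum-starved 8 h, then given compound (5% DMSO) with 50 μg/ml chicken collagen II for 16 h at 37 °C. Lysates captured on anti-DDR2 antibody plates; phospho-DDR2 detected with HRP anti-phosphotyrosine antibody by chemiluminescence.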

[2] = target: T2, His-tagged human recombinant DDR-2 kinase domain (His-TEV-DDR2 467-855 aa) (Homo sapiens, UniProt Q16832); test: Autophosphorylation assay for biochemical activity testing of DDR2 (HTRF)
T2 construct: His-TEV-DDR2 467-855 aa
T2 sequence (Q16832 467-855): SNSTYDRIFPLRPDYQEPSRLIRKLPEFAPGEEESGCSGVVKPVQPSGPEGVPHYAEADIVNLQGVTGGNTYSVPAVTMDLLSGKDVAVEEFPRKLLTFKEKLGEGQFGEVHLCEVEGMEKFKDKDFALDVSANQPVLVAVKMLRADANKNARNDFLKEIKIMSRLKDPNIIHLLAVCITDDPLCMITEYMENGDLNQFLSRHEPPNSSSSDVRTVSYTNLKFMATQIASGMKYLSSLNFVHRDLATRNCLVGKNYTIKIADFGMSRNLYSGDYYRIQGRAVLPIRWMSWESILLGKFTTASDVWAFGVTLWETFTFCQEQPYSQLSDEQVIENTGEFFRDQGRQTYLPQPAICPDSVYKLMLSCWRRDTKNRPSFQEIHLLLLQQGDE
How it was run: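 Phospho-tyrosine was detected by HTRF between XL665 anti-6His and cryptate anti-phosphotyrosine PT66 antibodies, using the emission ratio. Inhibition was referenced to the inhibitor-free reaction.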

[3] = biochemical DDR2 autophosphorylation
[4] = HEK293 transfected with human DDR2, 50 μg/ml chicken collagen II, 16 h
[5] = 4 nM DDR2 kinase domain, 150 μM ATP, 150 min at 22° C.

Row | IC50 ([1]; cellular phospho-DDR2) | IC50 [2, 3] | IC50 [1, 4] | IC50 [2, 5] | SMILES
1 | 40 nM | 66 nM | – | – | CNC(=O)c1cc(Oc2ccc(CNC(=O)Nc3cc(C)c(Cl)cc3OC3CCNCC3)cc2)ccn1 [compound 124, 4-(4-{3-[4-Chloro-5-methyl-2-(piperidin-4-yloxy)-phenyl]-ureidomethyl}-phenoxy)-pyridine-2-carboxylic acid methylamide]
2 | 18 nM | 40 nM | – | – | CNC(=O)c1cc(Oc2ccc(CNC(=O)Nc3cc(C(F)(F)F)ccc3OCCN)cc2C)ccn1 [compound 155, 4-(4-{3-[2-(2-Amino-ethoxy)-5-trifluoromethyl-phenyl]-ureidomethyl}-2-methyl-phenoxy)-pyridine-2-carboxylic acid methylamide]
3 | 25 nM | 120 nM | – | – | CNC(=O)c1cc(Oc2ccc(CNC(=O)Nc3cc(Cl)ccc3OC)cc2C)ccn1 [compound 100, 4-{4-[3-(5-Chloro-2-methoxy-phenyl)-ureidomethyl]-2-methyl-phenoxy}-pyridine-2-carboxylic acid methylamide]
4 | 745 nM | 810 nM | – | – | CNC(=O)c1cc(Oc2ccc(CNC(=O)Nc3c(Cl)cncc3Cl)cc2)ccn1 [compound 84, 4-{4-[3-(3,5-Dichloro-pyridin-4-yl)-ureidomethyl]-phenoxy}-pyridine-2-carboxylic acid methylamide]
5 | 16 nM | 40 nM | – | – | CNC(=O)c1cc(Oc2ccc(CNC(=O)Nc3cc(C)c(Cl)cc3OCCCN(C)C)cc2C)ccn1 [compound 163, 4-(4-{3-[4-Chloro-2-(3-dimethylamino-propoxy)-5-methyl-phenyl]-ureidomethyl}-2-methyl-phenoxy)-pyridine-2-carboxylic acid methylamide]
6 | 30 nM | 59 nM | – | – | CNC(=O)c1cc(Oc2ccc(CNC(=O)Nc3cc(Cl)c(C)cc3OCC3CCCN3)cc2)ccn1 (stereo not shown) [compound 182, 4-(4-{3-[5-Chloro-4-methyl-2-(pyrrolidin-2-ylmethoxy)-phenyl]-ureidomethyl}-phenoxy)-pyridine-2-carboxylic acid methylamide]
7 | 55 nM | 200 nM | – | – | CNC(=O)c1cc(Oc2ccc(CNC(=O)Nc3cc(C)c(Cl)cc3OCCN(C)C)cc2)ccn1 [compound 118, 4-(4-{3-[4-Chloro-2-(2-dimethylamino-ethoxy)-5-methyl-phenyl]-ureidomethyl}-phenoxy)-pyridine-2-carboxylic acid methylamide]
8 | 14 nM | 30 nM | – | – | CNC(=O)c1cc(Oc2ccc(CNC(=O)Nc3cc(Cl)ccc3OC)cc2)ccn1 [compound 19]
9 | – | – | 42 nM | 190 nM | COc1ncc(Cl)cc1NC(=O)NCc1ccc(Oc2ccnc(C)c2)cc1 [compound 27]
10 | 74 nM | 340 nM | – | – | CNC(=O)c1cc(Oc2ccc(C(C)NC(=O)Nc3cc(Cl)ccc3OC)cc2)ccn1 (stereo not shown) [compound 72, 4-(4-{1-[3-(5-Chloro-2-methoxy-phenyl)-ureido]-ethyl}-phenoxy)-pyridine-2-carboxylic acid methylamide]
11 | 24 nM | 34 nM | – | – | CNC(=O)c1cc(Oc2ccc(CNC(=O)Nc3cc(C(F)(F)F)c(Cl)cc3OC3CCNCC3)cc2)ccn1 [compound 130, 4-(4-{3-[4-Chloro-2-(piperidin-4-yloxy)-5-trifluoromethyl-phenyl]-ureidomethyl}-phenoxy)-pyridine-2-carboxylic acid methylamide]
12 | 1450 nM | 1000 nM | – | – | CNC(=O)c1cc(Oc2ccc(CNC(=O)Nc3ccnc(Cl)c3)cc2)ccn1 [compound 89, 4-{4-[3-(2-Chloro-pyridin-4-yl)-ureidomethyl]-phenoxy}-pyridine-2-carboxylic acid methylamide]
13 | 130 nM | 290 nM | – | – | CNC(=O)c1cc(Oc2ccc(CNC(=O)Nc3cc(C)c(Cl)cc3OCCN3CCOCC3)cc2)ccn1 [compound 110, 4-(4-{3-[4-Chloro-5-methyl-2-(2-morpholin-4-yl-ethoxy)-phenyl]-ureidomethyl}-phenoxy)-pyridine-2-carboxylic acid methylamide]
14 | 630 nM | 780 nM | – | – | CNC(=O)c1cc(Oc2ccc(CNC(=O)Nc3ccc(C)cn3)cc2C)ccn1 [compound 211, 4-{2-Methyl-4-[3-(5-methyl-pyridin-2-yl)-ureidomethyl]-phenoxy}-pyridine-2-carboxylic acid methylamide]
15 | 9 nM | 55 nM | – | – | CNC(=O)c1cc(Oc2ccc(CNC(=O)Nc3cc(Cl)c(C)cc3OC)cc2)ccn1 [compound 66, 4-{4-[3-(5-Chloro-2-methoxy-4-methyl-phenyl)-ureidomethyl]-phenoxy}-pyridine-2-carboxylic acid methylamide]
16 | 10 nM | 42 nM | – | – | CNC(=O)c1cc(Oc2ccc(CNC(=O)Nc3cc(C(F)(F)F)ccc3OCCN(C)C)cc2C)ccn1 [compound 150, 4-(4-{3-[2-(2-Dimethylamino-ethoxy)-5-trifluoromethyl-phenyl]-ureidomethyl}-2-methyl-phenoxy)-pyridine-2-carboxylic acid methylamide]
17 | 15 nM | 33 nM | – | – | CNCCOc1ccc(C(F)(F)F)cc1NC(=O)NCc1ccc(Oc2ccnc(C(=O)NC)c2)c(C)c1 [compound 146, 4-(2-Methyl-4-{3-[2-(2-methylamino-ethoxy)-5-trifluoromethyl-phenyl]-ureidomethyl}-phenoxy)-pyridine-2-carboxylic acid methylamide]
18 | – | – | 320 nM | 25 nM | O=C(Nc1ccc(Cc2nc3cc[nH]c(=O)c3[nH]2)cc1)Nc1cccc(C(F)(F)F)c1 [compound 4]
19 | 6300 nM | 5500 nM | – | – | CNC(=O)c1cc(Oc2ccc(CNC(=O)Nc3ccc(OC)nc3)cc2)ccn1 [compound 227, 4-{4-[3-(6-Methoxy-pyridin-3-yl)-ureidomethyl]-phenoxy}-pyridine-2-carboxylic acid methylamide]
20 | 380 nM | 570 nM | – | – | CNC(=O)c1cc(Oc2ccc(CNC(=O)Nc3cc(C)ccn3)cc2)ccn1 [compound 212, 4-{4-[3-(4-Methyl-pyridin-2-yl)-ureidomethyl]-phenoxy}-pyridine-2-carboxylic acid methylamide]
21 | 27 nM | 74 nM | – | – | CNCCOc1cc(C)c(Cl)cc1NC(=O)NCc1ccc(Oc2ccnc(C(=O)NC)c2)cc1 [compound 177, 4-(4-{3-[5-Chloro-4-methyl-2-(2-methylamino-ethoxy)-phenyl]-ureidomethyl}-phenoxy)-pyridine-2-carboxylic acid methylamide]
22 | – | – | 270 nM | 420 nM | CNC(=O)c1cc(Oc2ccc(COC(=O)Nc3ccc(Cl)c(C(F)(F)F)c3)cc2)ccn1 [compound 6]
23 | 1500 nM | 2000 nM | – | – | CNC(=O)c1cc(Oc2ccc(CNC(=O)Nc3ccc(C)cn3)cc2)ccn1 [compound 210, 4-{4-[3-(5-Methyl-pyridin-2-yl)-ureidomethyl]-phenoxy}-pyridine-2-carboxylic acid methylamide]
24 | – | – | 41 nM | 110 nM | CNC(=O)c1cc(Oc2ccc(CNC(=O)Nc3cc(C)cnc3OC)cc2C)ccn1 [compound 20]
25 | 4600 nM | 14000 nM | – | – | CNC(=O)c1cc(Oc2ccc(CNC(=O)Nc3c(OC)cc(Cl)c(C)c3Cl)cc2)ccn1 [compound 103, 4-{4-[3-(2,4-Dichloro-6-methoxy-3-methyl-phenyl)-ureidomethyl]-phenoxy}-pyridine-2-carboxylic acid methylamide]
26 | – | – | 110 nM | 62 nM | COc1ccc(C(F)(F)F)cc1NC(=O)Nc1ccc(Cc2nc3cc[nH]c(=O)c3[nH]2)cc1 [compound 3]
